Results taken from ChEMBL document CHEMBL4665657, “2-Phenyl-8-(1-phenylallyl)-chromenone compounds have a pan-PPAR modulator pharmacophore” (Bioorg Med Chem, 2019).
The source made the active and inactive calls. The rule behind the calls is not given here.

Tests used:
BMMSC [1] = assay: Induction of adipogenesis in human BMMSC cells assessed as increase in adiponectin secretion at 10 uM in presence of WY14643 incubated for 5 days by ELISA; type: functional, cell-based; conditions: time 5.0 day
BMMSC [2] = assay: Induction of adipogenesis in human BMMSC cells assessed as increase in adiponectin mRNA at 10 uM incubated for 3 days by qRT-PCR analysis; type: functional, cell-based; conditions: time 3.0 day
BMMSC [3] = assay: Induction of adipogenesis in human BMMSC cells assessed as lipid droplet formation at 10 uM incubated for 5 days by oil red O staining based inverted microscopy analysis; type: functional, cell-based; conditions: time 5.0 day
BMMSC [4] = assay: Induction of adipogenesis in human BMMSC cells assessed as increase in adiponectin secretion at 10 uM in presence of pioglitazone incubated for 5 days by ELISA; type: functional, cell-based; conditions: time 5.0 day
[5] = molecular target: T1, Peroxisome proliferator-activated receptor gamma (Homo sapiens, UniProt P37231); assay: Binding affinity to PPARgamma (unknown origin) by TR-FRET assay
T1 sequence (P37231 whole entry): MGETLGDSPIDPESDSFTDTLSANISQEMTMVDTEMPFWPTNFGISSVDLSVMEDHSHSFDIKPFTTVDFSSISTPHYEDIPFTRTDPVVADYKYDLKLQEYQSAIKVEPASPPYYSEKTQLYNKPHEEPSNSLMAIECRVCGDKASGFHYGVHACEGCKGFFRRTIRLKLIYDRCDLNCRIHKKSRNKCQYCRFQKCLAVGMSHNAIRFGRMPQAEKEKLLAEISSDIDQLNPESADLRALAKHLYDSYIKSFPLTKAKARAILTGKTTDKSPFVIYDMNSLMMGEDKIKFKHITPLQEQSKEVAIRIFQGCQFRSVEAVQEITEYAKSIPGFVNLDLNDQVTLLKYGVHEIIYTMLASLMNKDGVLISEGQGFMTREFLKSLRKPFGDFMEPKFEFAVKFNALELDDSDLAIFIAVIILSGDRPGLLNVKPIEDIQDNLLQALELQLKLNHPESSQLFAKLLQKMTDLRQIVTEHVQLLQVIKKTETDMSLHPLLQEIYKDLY

[6] = molecular target: T2, Peroxisome proliferator-activated receptor alpha (Homo sapiens, UniProt Q07869); assay: Binding affinity to PPARalpha (unknown origin) by TR-FRET assay
T2 sequence (Q07869 whole entry): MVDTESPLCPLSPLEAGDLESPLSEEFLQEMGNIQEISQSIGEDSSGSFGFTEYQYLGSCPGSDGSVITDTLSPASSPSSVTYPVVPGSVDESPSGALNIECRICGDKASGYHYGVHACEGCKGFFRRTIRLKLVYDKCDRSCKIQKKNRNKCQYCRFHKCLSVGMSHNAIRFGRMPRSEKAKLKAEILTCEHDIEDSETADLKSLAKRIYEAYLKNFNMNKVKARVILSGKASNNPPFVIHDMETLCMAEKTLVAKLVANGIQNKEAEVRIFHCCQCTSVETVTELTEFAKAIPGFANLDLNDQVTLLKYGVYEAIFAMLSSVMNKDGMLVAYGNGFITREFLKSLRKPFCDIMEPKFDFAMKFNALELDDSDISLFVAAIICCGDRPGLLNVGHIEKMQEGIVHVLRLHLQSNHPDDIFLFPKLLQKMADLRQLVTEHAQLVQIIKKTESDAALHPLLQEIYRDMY

[7] = molecular target: T3, Oxysterols receptor LXR-alpha (Homo sapiens) (UniProt Q13133); assay: Transactivation of LXRalpha (unknown origin) by TR-FRET assay
T3 sequence (whole entry): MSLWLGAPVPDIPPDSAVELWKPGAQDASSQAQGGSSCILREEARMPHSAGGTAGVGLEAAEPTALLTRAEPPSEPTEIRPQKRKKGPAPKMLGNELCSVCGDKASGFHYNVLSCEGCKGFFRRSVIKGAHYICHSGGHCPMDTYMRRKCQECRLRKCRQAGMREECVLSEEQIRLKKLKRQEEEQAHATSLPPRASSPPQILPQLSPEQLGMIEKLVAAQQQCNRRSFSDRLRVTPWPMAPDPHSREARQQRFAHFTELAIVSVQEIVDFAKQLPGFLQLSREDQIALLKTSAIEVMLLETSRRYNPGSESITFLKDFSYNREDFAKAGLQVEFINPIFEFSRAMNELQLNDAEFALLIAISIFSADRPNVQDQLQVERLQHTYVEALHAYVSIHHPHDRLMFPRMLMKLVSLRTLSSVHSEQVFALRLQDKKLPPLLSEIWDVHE

[8] = molecular target: T4, Bile acid receptor (Homo sapiens) (UniProt Q96RI1); assay: Transactivation of FXR (unknown origin) by TR-FRET assay
T4 sequence (whole entry): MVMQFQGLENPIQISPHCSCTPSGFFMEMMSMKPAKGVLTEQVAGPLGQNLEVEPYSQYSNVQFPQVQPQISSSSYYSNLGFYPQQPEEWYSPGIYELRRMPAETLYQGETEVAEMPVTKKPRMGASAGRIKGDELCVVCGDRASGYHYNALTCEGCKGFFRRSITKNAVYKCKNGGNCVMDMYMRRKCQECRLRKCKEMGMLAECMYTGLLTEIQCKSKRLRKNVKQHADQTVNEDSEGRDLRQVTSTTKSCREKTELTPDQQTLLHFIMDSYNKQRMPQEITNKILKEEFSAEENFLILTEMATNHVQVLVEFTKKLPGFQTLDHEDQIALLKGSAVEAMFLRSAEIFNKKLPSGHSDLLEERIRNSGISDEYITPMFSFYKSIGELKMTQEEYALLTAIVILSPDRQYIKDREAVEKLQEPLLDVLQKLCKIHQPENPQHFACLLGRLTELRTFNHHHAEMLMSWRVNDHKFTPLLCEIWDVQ

BMMSC [9] = assay: Induction of adipogenesis in human BMMSC cells assessed as increase in HMGCS2 mRNA at 10 uM incubated for 3 days by qRT-PCR analysis; type: functional, cell-based; conditions: time 3.0 day
BMMSC [10] = assay: Induction of adipogenesis in human BMMSC cells assessed as increase in HMGCR mRNA at 10 uM incubated for 3 days by qRT-PCR analysis; type: functional, cell-based; conditions: time 3.0 day
BMMSC [11] = assay: Induction of adipogenesis in human BMMSC cells assessed as increase in ACOX1 mRNA at 10 uM incubated for 3 days by qRT-PCR analysis; type: functional, cell-based; conditions: time 3.0 day
BMMSC [12] = assay: Induction of adipogenesis in human BMMSC cells assessed as increase in ANGPTL4 mRNA at 10 uM incubated for 3 days by qRT-PCR analysis; type: functional, cell-based; conditions: time 3.0 day
BMMSC [13] = assay: Induction of adipogenesis in human BMMSC cells assessed as increase in adiponectin secretion at 10 uM incubated for 5 days by ELISA; type: functional, cell-based; conditions: time 5.0 day
BMMSC [14] = assay: Induction of adipogenesis in human BMMSC cells assessed as increase in adiponectin secretion incubated for 5 days by ELISA; type: functional, cell-based; conditions: time 5.0 day
[15] = molecular target: T5, Peroxisome proliferator-activated receptor delta (Homo sapiens, UniProt Q03181); assay: Binding affinity to PPARdelta (unknown origin) by TR-FRET assay
T5 sequence (Q03181 whole entry): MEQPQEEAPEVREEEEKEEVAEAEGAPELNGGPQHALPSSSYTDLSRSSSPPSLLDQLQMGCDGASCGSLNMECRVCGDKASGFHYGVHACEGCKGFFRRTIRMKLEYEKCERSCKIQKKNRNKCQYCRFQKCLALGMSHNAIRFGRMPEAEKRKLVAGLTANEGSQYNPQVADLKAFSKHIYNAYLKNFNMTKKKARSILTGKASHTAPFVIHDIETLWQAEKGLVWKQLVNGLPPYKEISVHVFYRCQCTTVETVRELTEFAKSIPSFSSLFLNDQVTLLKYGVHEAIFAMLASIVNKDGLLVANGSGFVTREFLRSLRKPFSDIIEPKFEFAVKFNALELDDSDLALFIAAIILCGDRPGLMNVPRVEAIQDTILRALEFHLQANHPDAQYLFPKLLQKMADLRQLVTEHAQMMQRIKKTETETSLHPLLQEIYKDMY

BMMSC [16] = assay: Induction of adipogenesis in human BMMSC cells assessed as increase in adiponectin secretion at 10 uM in presence of GW501516 incubated for 5 days by ELISA; type: functional, cell-based; conditions: time 5.0 day
[17] = molecular target: T6, Oxysterols receptor LXR-beta (Homo sapiens) (UniProt P55055); assay: Transactivation of LXRbeta (unknown origin) by TR-FRET assay
T6 sequence (whole entry): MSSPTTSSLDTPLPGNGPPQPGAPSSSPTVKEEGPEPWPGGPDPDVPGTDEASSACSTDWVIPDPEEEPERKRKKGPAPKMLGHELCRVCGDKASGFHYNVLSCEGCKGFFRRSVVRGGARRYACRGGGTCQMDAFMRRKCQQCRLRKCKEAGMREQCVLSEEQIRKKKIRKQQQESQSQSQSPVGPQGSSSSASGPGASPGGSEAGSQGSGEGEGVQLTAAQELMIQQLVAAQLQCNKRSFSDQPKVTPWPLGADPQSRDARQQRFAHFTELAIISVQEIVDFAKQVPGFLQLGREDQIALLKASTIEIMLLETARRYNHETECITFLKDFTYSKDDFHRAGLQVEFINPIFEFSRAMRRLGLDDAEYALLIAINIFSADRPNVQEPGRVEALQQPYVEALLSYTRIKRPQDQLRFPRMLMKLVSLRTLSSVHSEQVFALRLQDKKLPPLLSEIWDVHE

BMMSC [18] = assay: Induction of adipogenesis in human BMMSC cells assessed as increase in ACACB mRNA at 10 uM incubated for 3 days by qRT-PCR analysis; type: functional, cell-based; conditions: time 3.0 day
[19] = molecular target: T7, Glucocorticoid receptor (Homo sapiens) (UniProt P04150); assay: Binding affinity to glucocorticoid receptor (unknown origin) by TR-FRET assay
T7 sequence (whole entry): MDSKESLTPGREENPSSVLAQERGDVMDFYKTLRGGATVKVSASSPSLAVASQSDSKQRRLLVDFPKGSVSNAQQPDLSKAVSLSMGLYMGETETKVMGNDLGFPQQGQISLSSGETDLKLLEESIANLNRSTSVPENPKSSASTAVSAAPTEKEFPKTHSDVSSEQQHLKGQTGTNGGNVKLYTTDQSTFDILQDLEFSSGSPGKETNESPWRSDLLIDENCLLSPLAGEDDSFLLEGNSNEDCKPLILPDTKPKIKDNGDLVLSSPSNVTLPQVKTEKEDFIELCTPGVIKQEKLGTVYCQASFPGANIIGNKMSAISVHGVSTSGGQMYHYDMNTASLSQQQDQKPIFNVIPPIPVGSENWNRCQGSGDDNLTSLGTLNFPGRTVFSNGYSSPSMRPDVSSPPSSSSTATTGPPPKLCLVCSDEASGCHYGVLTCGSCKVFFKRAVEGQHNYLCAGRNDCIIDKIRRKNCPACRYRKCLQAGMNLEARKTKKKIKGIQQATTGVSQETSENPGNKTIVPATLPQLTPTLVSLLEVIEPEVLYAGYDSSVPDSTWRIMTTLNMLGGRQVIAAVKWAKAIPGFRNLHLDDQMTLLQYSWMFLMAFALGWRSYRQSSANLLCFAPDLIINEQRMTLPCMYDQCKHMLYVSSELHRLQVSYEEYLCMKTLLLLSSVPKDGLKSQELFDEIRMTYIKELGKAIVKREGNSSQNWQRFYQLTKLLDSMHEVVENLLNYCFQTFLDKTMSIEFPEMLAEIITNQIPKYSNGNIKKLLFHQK

Row | Ki [5] [nM] | Ki [6] [nM] | Activity [7] | Activity [8] | Ki [15] [nM] | Activity [17] | Activity [19] | Compound | Activity (BMMSC [1]) | Activity (BMMSC [2]) | Activity (BMMSC [3]) | Activity (BMMSC [4]) | Activity (BMMSC [9]) | Activity (BMMSC [10]) | Activity (BMMSC [11]) | Activity (BMMSC [12]) | Activity (BMMSC [13]) | Activity (BMMSC [14]) | Activity (BMMSC [16]) | Activity (BMMSC [18])
1 | 1410 | 960 | inactive | inactive | 1180 | inactive | inactive | C=CC(c1ccccc1)c1c(O)cc(O)c2c(=O)cc(-c3ccccc3)oc12 (stereo unspecified) | Active | Active | Active | Active | Active | Active | Active | Active | Active | Dose-dependent effect | Active | Active
2 | – | – | – | – | – | – | – | C=CC(c1ccc(OC)cc1)c1c(O)cc(O)c2c(=O)cc(-c3ccccc3)oc12 (stereo unspecified) | – | – | Active | – | – | – | – | – | Active | Dose-dependent effect | – | –
3 | – | – | – | – | – | – | – | Cc1cccc(Nc2cc(Cl)nc(SCC(=O)O)n2)c1C | – | – | – | – | Active | Active | Active | – | – | – | – | Active
